Reference: the NIST ThermoML archive (doi:10.1016/j.tca.2016.06.022)

Test: xn = mol fraction of the nth substance listed
Conditions: 101 kPa, Liquid, Vibrating tube method

NCCN [ethane-1,2-diamine] + O
mass density [kg/m3]
Conditions	288.15 K	298.15 K	308.15 K	323.15 K	333.15 K
x1 = 0.002	–	996.85	993.82	987.81	982.96
x1 = 0.0033	–	996.68	993.64	987.61	982.75
x1 = 0.0047	–	996.5	993.43	987.39	982.53
x1 = 0.0072	–	996.2	993.09	987	982.12
x1 = 0.009	–	995.97	992.86	986.75	981.85
x1 = 0.0123	–	995.55	992.39	986.24	981.3
x1 = 0.0222	–	994.61	991.25	984.89	979.82
x1 = 0.0436	–	993.31	989.53	982.66	977.37
x1 = 0.0609	–	992.96	988.77	981.44	975.89
x1 = 0.0827	–	993.06	988.38	980.39	974.47
x1 = 0.106	–	993.56	988.34	979.64	973.29
x1 = 0.1481	–	994.9	988.68	978.7	971.62
x1 = 0.2063	–	995.33	987.95	976.41	968.4
x1 = 0.2513	–	993.49	985.55	973.14	964.58
x1 = 0.3148	–	985.82	978.7	964.84	956.48
x1 = 0.3258	–	985.17	–	–	–
x1 = 0.341	–	984.26	975.15	961.96	952.88
x1 = 0.4038	–	974.96	965.9	952.12	942.8
x1 = 0.4489	–	967.22	958.22	944.49	935.14
x1 = 0.4928	–	959.94	950.76	936.96	927.53
x1 = 0.5468	–	950.96	942.44	928.02	918.58
x1 = 0.5907	–	943.88	934.72	920.79	911.42
x1 = 0.6361	945.77	936.87	927.73	913.79	904.37
x1 = 0.6843	938.88	929.8	920.72	906.8	897.38
x1 = 0.7386	931.34	922.53	913.33	899.31	889.84
x1 = 0.7954	924.08	914.93	905.7	891.79	882.31
x1 = 0.81	922.08	912.91	903.69	889.66	880.16
x1 = 0.8505	917.35	908.14	898.88	884.84	875.33
x1 = 0.898	912.03	902.85	893.62	879.53	870.05
x1 = 0.9282	908.76	899.58	890.26	876.1	866.59
x1 = 0.9584	905.56	896.29	886.94	872.76	863.2
x1 = 0.9678	904.59	895.3	885.94	871.75	862.17
x1 = 0.9793	903.4	894.08	884.7	870.49	860.9
x1 = 1	901.26	891.9	882.49	868.23	858.6
